From ChEMBL document CHEMBL1909046, “DrugMatrix in vitro pharmacology data”

What was measured:
[1] = target: Tyrosine-protein kinase Lck (Homo sapiens, UniProt P06239); assay: DRUGMATRIX: Protein Tyrosine Kinase, LCK enzyme inhibition (substrate: Poly(Glu:Tyr)); format: cell-based, Insect cells; details: insect cells; Not Active = under 50% inhibition at 10 µM
[2] = target: T1, Muscarinic acetylcholine receptor M4 (Homo sapiens, UniProt P08173); format: cell membranes, CHO-K1, Membrane; details: cho-k1; further: in other assays of this panel Not Active means under 50% inhibition at 10 µM
T1 sequence (P08173 whole entry): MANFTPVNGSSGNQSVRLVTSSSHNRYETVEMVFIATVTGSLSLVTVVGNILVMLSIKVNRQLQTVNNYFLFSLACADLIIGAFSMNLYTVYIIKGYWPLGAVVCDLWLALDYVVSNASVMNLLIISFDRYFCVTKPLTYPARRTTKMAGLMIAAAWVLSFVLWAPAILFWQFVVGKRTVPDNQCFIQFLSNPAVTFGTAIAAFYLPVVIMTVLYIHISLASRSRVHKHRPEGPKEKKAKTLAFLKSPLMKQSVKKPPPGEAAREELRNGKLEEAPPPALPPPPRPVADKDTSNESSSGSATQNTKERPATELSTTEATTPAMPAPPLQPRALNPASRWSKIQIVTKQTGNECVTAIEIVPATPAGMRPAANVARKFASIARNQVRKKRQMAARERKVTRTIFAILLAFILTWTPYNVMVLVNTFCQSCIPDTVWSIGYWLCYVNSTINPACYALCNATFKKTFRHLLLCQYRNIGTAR

[3] = target: Mitogen-activated protein kinase 3 (Homo sapiens, UniProt P27361); assay: DRUGMATRIX: Protein Serine/Threonine Kinase, ERK1 enzyme inhibition (substrate: Myelin Basic Protein); set-up: species or system Escherichia coli; details: Not Active = under 50% inhibition at 10 µM
Chain of Mitogen-activated protein kinase 3 (P27361 whole entry): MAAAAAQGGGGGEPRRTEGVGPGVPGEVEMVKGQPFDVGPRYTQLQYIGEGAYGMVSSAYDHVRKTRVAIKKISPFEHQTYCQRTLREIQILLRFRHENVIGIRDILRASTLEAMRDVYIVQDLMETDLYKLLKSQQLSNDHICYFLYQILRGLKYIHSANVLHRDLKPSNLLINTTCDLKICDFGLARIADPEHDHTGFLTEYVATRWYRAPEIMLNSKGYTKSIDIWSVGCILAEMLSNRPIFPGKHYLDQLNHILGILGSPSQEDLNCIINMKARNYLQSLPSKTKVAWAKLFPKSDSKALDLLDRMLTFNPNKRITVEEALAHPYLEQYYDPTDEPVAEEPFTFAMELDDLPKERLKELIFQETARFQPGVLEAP

[4] = target: T2, Cholecystokinin receptor type A (Homo sapiens, UniProt P32238); format: cell membranes, Membrane; details: 1321-n1; further: in other assays of this panel Not Active means under 50% inhibition at 10 µM
T2 sequence (P32238 whole entry): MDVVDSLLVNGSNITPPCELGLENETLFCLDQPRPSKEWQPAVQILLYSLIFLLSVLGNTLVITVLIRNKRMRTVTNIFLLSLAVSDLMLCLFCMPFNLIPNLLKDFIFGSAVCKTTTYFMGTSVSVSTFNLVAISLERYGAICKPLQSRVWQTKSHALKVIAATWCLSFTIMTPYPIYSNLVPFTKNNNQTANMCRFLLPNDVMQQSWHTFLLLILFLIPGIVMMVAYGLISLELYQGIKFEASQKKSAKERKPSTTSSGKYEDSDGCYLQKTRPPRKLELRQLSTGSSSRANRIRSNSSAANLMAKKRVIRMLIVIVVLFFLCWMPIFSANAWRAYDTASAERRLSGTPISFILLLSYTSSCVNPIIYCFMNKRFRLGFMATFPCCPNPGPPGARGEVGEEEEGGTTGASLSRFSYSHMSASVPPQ

[5] = DRUGMATRIX: Glutamate, NMDA, Agonism radioligand binding (ligand: [3H] CGP-39653); format: cell membranes, Rattus norvegicus, Wistar, Cerebral cortex, Membrane; details: Not Active = under 50% inhibition at 10 µM
Cytochrome P450 2D6 = Cytochrome P450 2D6 (Homo sapiens, UniProt P10635); details: bti-tn-5b1-4; further: in other assays of this panel Not Active means under 50% inhibition at 10 µM
Chain of Cytochrome P450 2D6 (P10635 whole entry): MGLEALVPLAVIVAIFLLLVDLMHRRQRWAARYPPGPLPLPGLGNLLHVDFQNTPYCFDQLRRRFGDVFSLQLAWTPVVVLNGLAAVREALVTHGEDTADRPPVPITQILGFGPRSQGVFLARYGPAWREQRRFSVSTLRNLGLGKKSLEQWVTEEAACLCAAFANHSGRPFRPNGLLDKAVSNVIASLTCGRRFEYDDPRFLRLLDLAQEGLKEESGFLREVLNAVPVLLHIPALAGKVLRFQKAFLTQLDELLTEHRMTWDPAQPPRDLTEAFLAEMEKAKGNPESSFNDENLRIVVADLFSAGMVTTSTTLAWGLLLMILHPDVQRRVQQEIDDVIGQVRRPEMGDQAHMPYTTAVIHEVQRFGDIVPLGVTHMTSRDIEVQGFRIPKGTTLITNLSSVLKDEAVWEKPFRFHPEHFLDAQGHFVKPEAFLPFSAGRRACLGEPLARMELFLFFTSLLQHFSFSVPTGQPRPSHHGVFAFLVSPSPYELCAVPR

Adenosine receptor A2a = Adenosine receptor A2a (Homo sapiens, UniProt P29274); assay: DRUGMATRIX: Adenosine A2A radioligand binding (ligand: […]); format: cell membranes, HEK293, Membrane; details: hek293; Not Active = under 50% inhibition at 10 µM
Chain of Adenosine receptor A2a (P29274 whole entry): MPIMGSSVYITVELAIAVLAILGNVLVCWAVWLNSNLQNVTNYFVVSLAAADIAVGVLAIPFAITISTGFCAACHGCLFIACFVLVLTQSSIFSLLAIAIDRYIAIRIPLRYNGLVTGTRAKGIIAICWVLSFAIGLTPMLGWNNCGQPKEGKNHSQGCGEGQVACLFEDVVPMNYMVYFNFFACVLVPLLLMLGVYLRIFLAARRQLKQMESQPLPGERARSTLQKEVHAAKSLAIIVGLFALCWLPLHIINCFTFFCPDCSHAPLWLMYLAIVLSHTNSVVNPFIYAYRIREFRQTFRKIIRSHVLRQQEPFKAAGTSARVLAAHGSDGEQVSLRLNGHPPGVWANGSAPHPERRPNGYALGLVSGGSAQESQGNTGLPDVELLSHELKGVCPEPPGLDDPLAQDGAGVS

Estrogen receptor = target: T3, Estrogen receptor (Homo sapiens, UniProt P03372); details: sf9; further: in other assays of this panel Not Active means under 50% inhibition at 10 µM
T3 sequence (P03372 whole entry): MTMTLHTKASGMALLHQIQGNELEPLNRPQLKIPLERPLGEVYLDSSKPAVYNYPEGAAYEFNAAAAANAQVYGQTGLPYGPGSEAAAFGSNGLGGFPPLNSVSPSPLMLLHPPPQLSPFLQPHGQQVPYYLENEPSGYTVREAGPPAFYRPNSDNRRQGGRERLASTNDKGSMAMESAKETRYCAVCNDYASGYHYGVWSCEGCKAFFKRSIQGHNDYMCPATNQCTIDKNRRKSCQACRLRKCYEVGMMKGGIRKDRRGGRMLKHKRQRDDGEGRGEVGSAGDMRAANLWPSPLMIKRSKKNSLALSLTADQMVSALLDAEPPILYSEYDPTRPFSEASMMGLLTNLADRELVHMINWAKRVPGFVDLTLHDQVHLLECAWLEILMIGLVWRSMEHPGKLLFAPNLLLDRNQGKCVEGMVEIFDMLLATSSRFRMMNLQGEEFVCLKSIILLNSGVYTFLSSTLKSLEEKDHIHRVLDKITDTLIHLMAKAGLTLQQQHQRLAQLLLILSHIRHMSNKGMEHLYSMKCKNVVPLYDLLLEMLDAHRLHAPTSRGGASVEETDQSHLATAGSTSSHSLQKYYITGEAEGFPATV

Chain of Tyrosine-protein kinase Lck (P06239 whole entry): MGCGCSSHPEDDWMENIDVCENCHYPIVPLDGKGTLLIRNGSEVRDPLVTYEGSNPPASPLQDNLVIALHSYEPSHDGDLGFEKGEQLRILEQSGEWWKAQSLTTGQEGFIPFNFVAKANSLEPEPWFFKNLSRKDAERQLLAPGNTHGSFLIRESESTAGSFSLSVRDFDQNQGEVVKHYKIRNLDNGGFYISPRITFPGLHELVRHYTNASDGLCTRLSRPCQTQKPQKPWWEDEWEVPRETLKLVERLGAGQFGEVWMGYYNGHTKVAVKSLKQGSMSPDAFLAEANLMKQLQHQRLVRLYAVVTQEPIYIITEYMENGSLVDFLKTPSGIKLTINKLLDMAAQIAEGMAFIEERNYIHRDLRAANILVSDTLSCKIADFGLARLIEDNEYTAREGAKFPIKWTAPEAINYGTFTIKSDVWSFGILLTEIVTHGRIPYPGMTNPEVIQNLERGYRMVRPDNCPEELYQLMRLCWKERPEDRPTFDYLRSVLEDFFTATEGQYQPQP

CC(C)Cc1ccc([C@@H](C)C(=O)O)cc1 [(R)-IBUPROPHEN]
Not Active: IC50 [1] | IC50 [2] | IC50 [3] | IC50 [4] | IC50 [5] | Ki [5] | IC50 (Cytochrome P450 2D6) | Ki (Cytochrome P450 2D6) | IC50 (Adenosine receptor A2a) | IC50 (Estrogen receptor)

CNC1(c2ccccc2Cl)CCCCC1=O (stereo not given) [KETAMINE]
Not Active: IC50 [1] | IC50 [2] | IC50 [3] | IC50 [4] | IC50 [5] | Ki [5] | IC50 (Cytochrome P450 2D6) | Ki (Cytochrome P450 2D6) | IC50 (Adenosine receptor A2a) | IC50 (Estrogen receptor)

N#Cc1ccc(C(c2ccc(C#N)cc2)n2cncn2)cc1 [LETROZOLE]
Not Active: IC50 [1] | IC50 [2] | IC50 [3] | IC50 [4] | IC50 [5] | Ki [5] | IC50 (Cytochrome P450 2D6) | Ki (Cytochrome P450 2D6) | IC50 (Adenosine receptor A2a) | IC50 (Estrogen receptor)

O=C1Nc2ccc(Cl)cc2C(c2ccccc2Cl)=NC1O (stereo not given) [LORAZEPAM]
Not Active: IC50 [1] | IC50 [2] | IC50 [3] | IC50 [4] | IC50 [5] | Ki [5] | IC50 (Cytochrome P450 2D6) | Ki (Cytochrome P450 2D6) | IC50 (Adenosine receptor A2a) | IC50 (Estrogen receptor)

Cc1cccc(C)c1OCC(C)N (stereo not given) [MEXILETINE]
Not Active: IC50 [1] | IC50 [2] | IC50 [3] | IC50 [4] | IC50 [5] | Ki [5] | IC50 (Cytochrome P450 2D6) | Ki (Cytochrome P450 2D6) | IC50 (Adenosine receptor A2a) | IC50 (Estrogen receptor)

Nc1cc(N2CCCCC2)nc(N)[n+]1[O-] [MINOXIDIL]
Not Active: IC50 [1] | IC50 [2] | IC50 [3] | IC50 [4] | IC50 [5] | Ki [5] | IC50 (Cytochrome P450 2D6) | Ki (Cytochrome P450 2D6) | IC50 (Adenosine receptor A2a) | IC50 (Estrogen receptor)

CO[C@H]1/C=C/O[C@@]2(C)Oc3c(C)c(O)c4c(O)c(c(/C=N/N5CCN(C6CCCC6)CC5)c(O)c4c3C2=O)NC(=O)/C(C)=C\C=C\[C@H](C)[C@H](O)[C@@H](C)[C@@H](O)[C@@H](C)[C@H](OC(C)=O)[C@@H]1C [RIFAPENTINE]
Not Active: IC50 [1] | IC50 [2] | IC50 [3] | IC50 [4] | IC50 [5] | Ki [5] | IC50 (Cytochrome P450 2D6) | Ki (Cytochrome P450 2D6) | IC50 (Adenosine receptor A2a) | IC50 (Estrogen receptor)

CCCCOc1cc(CC2CNC(=O)N2)ccc1OC (stereo not given) [RO-201724]
Not Active: IC50 [1] | IC50 [2] | IC50 [3] | IC50 [4] | IC50 [5] | Ki [5] | IC50 (Cytochrome P450 2D6) | Ki (Cytochrome P450 2D6) | IC50 (Adenosine receptor A2a) | IC50 (Estrogen receptor)

O=C(Oc1ccccc1C(=O)O)c1ccccc1O [SALSALATE]
Not Active: IC50 [1] | IC50 [2] | IC50 [3] | IC50 [4] | IC50 [5] | Ki [5] | IC50 (Cytochrome P450 2D6) | Ki (Cytochrome P450 2D6) | IC50 (Adenosine receptor A2a) | IC50 (Estrogen receptor)
